Measurements as given in patent US7132438B2, “Benzimidazole derivatives” (priority 2001, dated 2006).
Like-named read-outs stand apart in the source and are kept apart here.

Key:
[1] = target: T1, IRAK-4 (Homo sapiens, UniProt Q9NWZ3); test: Enzymatic inhibition assay, IRAK-4 kinase activity (chemiluminescent ELISA); type: biochemical
T1 construct: Recombinant, full-length IRAK-1 or IRAK-4 enzyme (baculovirus expression system) was added; His (N); made in house
T1 sequence (Q9NWZ3 1-460): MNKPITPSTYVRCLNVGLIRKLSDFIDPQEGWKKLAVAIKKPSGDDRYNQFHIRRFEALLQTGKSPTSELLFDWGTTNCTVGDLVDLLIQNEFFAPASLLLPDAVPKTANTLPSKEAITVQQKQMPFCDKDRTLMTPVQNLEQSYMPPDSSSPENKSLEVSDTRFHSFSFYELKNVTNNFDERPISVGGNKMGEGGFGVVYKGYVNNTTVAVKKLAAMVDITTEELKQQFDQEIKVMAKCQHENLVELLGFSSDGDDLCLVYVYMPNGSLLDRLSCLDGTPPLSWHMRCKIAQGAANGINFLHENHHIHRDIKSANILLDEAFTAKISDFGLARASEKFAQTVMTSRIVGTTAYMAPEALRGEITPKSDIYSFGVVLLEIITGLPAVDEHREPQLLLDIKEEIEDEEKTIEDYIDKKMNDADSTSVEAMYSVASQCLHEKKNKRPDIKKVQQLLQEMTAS
Method: Enzymatic inhibition assay. This example provides a method that is useful for evaluating test compounds for inhibition of IRAK-1 or IRAK-4 kinase activity.
(§1) 96-well polystyrene microtiter plates were coated with neutravidin for IRAK-1 or streptavidin for IRAK-4 ([…] in PBS, overnight at 4° C.). The coating solution was removed and in 80 μL/well a kinase reaction mixture was added (for IRAK-1: 20 mM Tris-HCl, pH 7.5, 10 mM MgCl2, 2 mM EGTA, 1 mM NaF, 0.5 mM benzamidine, 1 mM DTT, 3 μM ATP, […] of biotinylated substrate peptide bio-[…], sequence derived from IRAK-1; for IRAK-4: 20 mM Tris-HCl, pH 7.5, 10 mM MgCl2, 2 mM EGTA, 1 mM NaF, 0.5 mM benzamidine, 1 mM DTT, 10% glycerol, 10 μM ATP, […] of biotinylated substrate peptide bio-[…], sequence derived from GFAP).
(§2) At 10 μL/well in DMSO test compounds were added covering a final concentration range from 1 nM to […]. Recombinant, full-length IRAK-1 or IRAK-4 enzyme (baculovirus expression system) was added in 10 μL buffer containing Tris-HCl pH 7.5 20 mM, EGTA 2 mM, benzamidine 0.5 mM, DTT 1 mM, MgCl2 10 mM and glycerol 10% (IRAK-4 only) to initiate the kinase reaction. The reaction mixture was incubated at room temperature for 60 min on a shaker. During this incubation the substrate peptide is being phosphorylated by the kinase and gets captured onto the surface of the wells by neutravidin or streptavidin, respectively. The plate was washed 3× with 150 μL distilled water to terminate the reaction and remove components of the reaction mixture. A conventional chemiluminescent ELISA detection technique was initiated by adding 100 μL/well primary antibody (monoclonal antibody YC10, generated to recognize the phosphorylated epitope in the substrate peptide; used at 1:20,000 dilution for IRAK-1 and 1:10,000 dilution for IRAK-4) premixed with horseradish peroxidase (HRP) conjugated anti-mouse secondary antibody (commercially available from several sources; used at 1:10,000 dilution) in PBS containing 2% BSA. The solution was incubated at room temperature for 40 min on a shaker, then washed 3× with 150 μL of water. 100 μL/well 10× diluted SuperSignal HRP substrate (from Pierce) was added and after 5 min incubation the chemiluminescent signal was captured by a Labsystems LuminoSkan luminometer. The point of 50% inhibition of IRAK-1 or IRAK-4 enzyme activity (IC50) was determined (see Table 1).

[2] = target: T2, IRAK-1 (Homo sapiens, UniProt P51617); test: Enzymatic inhibition assay, IRAK-1 kinase activity (chemiluminescent ELISA); type: biochemical
T2 construct: Recombinant, full-length IRAK-1 or IRAK-4 enzyme (baculovirus expression system) was added; Flag (N); made in house
T2 sequence (P51617 whole entry): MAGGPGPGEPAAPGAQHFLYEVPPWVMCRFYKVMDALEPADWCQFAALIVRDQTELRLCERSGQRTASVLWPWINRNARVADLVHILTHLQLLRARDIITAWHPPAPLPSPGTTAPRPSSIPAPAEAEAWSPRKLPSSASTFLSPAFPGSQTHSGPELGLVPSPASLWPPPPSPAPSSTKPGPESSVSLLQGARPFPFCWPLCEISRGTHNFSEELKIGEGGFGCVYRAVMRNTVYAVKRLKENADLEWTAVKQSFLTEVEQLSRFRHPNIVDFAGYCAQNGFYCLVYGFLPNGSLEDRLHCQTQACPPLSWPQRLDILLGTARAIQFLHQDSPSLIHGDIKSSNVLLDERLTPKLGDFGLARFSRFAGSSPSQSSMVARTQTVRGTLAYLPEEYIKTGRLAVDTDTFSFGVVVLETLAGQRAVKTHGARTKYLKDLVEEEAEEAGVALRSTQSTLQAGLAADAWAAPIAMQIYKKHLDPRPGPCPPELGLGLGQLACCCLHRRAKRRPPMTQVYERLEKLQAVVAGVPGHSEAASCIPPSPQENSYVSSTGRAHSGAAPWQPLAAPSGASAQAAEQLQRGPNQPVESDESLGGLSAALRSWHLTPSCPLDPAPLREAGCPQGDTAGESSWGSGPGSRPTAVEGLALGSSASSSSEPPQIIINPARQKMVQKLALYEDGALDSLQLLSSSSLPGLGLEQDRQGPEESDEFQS
Method: Enzymatic inhibition assay.
as §1
as §2, with “luminometer.” for “luminometer. The point of 50% inhibition of IRAK-1 or IRAK-4 enzyme activity (IC50) was determined (see Table 1).”

[3] = recombinant full-length IRAK-1, 3 μM ATP, 60 min room temperature, read-out: IC50 values (μM) IRAK-1
[4] = recombinant full-length IRAK-4, 10 μM ATP, 60 min room temperature, read-out: IC50 values (μM) IRAK-4

| SMILES | IC50 [1] | IC50 [2, 3] | IC50 [1, 4] | IC50 [2] |
| --- | --- | --- | --- | --- |
| O=C(Nc1nc2ccccc2[nH]1)c1cccc([N+](=O)[O-])c1 [Compound 1, 3-nitro-N-(1H-benzoimidazol-2-yl)-benzamide] | < 10 µM | < 10 µM |  |  |
| Cc1cc2nc(NC(=O)c3cccc([N+](=O)[O-])c3)[nH]c2cc1C [Compound 2, 3-nitro-N-(5,6-dimethyl-1H-benzoimidazol-2-yl)-benzamide] | < 10 µM | 10 to 30 µM |  |  |
| O=C(Nc1nc2ccccc2n1CCN1CCOCC1)c1cccc([N+](=O)[O-])c1 [Compound 3, 3-nitro-N-(1-(2-morpholin-4-yl-ethyl)-1H-benzoimidazol-2-yl)-benzamide] | < 10 µM | < 10 µM |  |  |
| O=C(Nc1nc2cc(F)c(F)cc2n1CCN1CCOCC1)c1cccc([N+](=O)[O-])c1 [Compound 4, 3-nitro-N-(1-(2-morpholin-4-yl-ethyl)-5,6-difluoro-1H-benzoimidazol-2-yl)-benzamide] |  |  | < 10 µM | < 10 µM |
| COC(=O)CCCn1c(NC(=O)c2cccc([N+](=O)[O-])c2)nc2ccccc21 [Compound 5, 3-nitro-N-(1-(3-carboxymethylpropyl)-1H-benzoimidazol-2-yl)-benzamide] |  |  | < 10 µM | < 10 µM |
| CCOC(=O)Cn1c(NC(=O)c2cccc([N+](=O)[O-])c2)nc2cc(F)c(F)cc21 [Compound 6, 3-nitro-N-(1-(ethylacet-2-yl)-5,6-difluoro-1H-benzoimidazol-2-yl)-benzamide] |  |  | < 10 µM | 10 to 30 µM |
| COC(=O)c1ccc2c(c1)nc(NC(=O)c1cccc([N+](=O)[O-])c1)n2CCO [Compound 7a, 3-nitro-N-(1-hydroxyethyl-5-carboxymethyl-1H-benzoimidazol-2-yl)-benzamide] |  |  | < 10 µM | < 10 µM |
| CCn1c(NC(=O)c2ccc(OC)cc2)nc2ccccc21 [Compound 8, 4-methoxy-N-(1-ethyl-1H-benzoimidazol-2-yl)-benzamide] |  |  | 10 to 30 µM | 10 to 30 µM |
| O=C(Nc1nc2ccccc2n1CCO)c1cccc(Cl)c1 [Compound 9, 3-chloro-N-(1-hydroxyethyl-1H-benzoimidazol-2-yl)-benzamide] |  |  | < 10 µM | < 10 µM |
| O=C(Nc1nc2ccccc2n1CCO)c1ccc(Cl)c(Cl)c1 [Compound 10, 3,4-dichloro-N-(1-hydroxyethyl-1H-benzoimidazol-2-yl)-benzamide] |  |  | < 10 µM | 10 to 30 µM |
| COC(=O)c1cccc(C(=O)Nc2nc3ccccc3n2CCN2CCOCC2)c1 [Compound 11, 3-carboxymethyl-N-(1-(2-morpholin-4-yl-ethyl)-1H-benzoimidazol-2-yl)-benzamide] |  |  | < 10 µM | < 10 µM |
| CS(=O)(=O)c1cccc(C(=O)Nc2nc3ccccc3n2CCN2CCOCC2)c1 [Compound 12, 3-methanesulfonyl-N-(1-(2-morpholin-4-yl-ethyl)-1H-benzoimidazol-2-yl)-benzamide] |  |  | < 10 µM | < 10 µM |
| O=C(Nc1nc2ccccc2n1CCN1CCOCC1)c1ccc([N+](=O)[O-])o1 [Compound 13, 5-nitro-N-(1-(2-morpholin-4-yl-ethyl)-1H-benzoimidazol-2-yl)-2-furamide] |  |  | < 10 µM | < 10 µM |
| O=C(Nc1nc2ccccc2n1CCN1CCOCC1)c1cccs1 [Compound 14, N-(1-(2-morpholin-4-yl-ethyl)-1H-benzoimidazol-2-yl)-2-thiophenecarboxamide] |  |  | 10 to 30 µM | 10 to 30 µM |
| CC(C)(C)C(=O)Oc1ccc2c(c1)nc(NC(=O)c1cccc([N+](=O)[O-])c1)n2CCCO [Compound 15a, 3-nitro-N-(1-hydroxypropyl-5-(2′,2′-dimethylpropionyl)-1H-benzoimidazol-2-yl)-benzamide] | < 10 µM |  |  |  |
| O=C(Nc1nc2cc(F)ccc2n1[C@H]1CC[C@H](O)CC1)c1cccc([N+](=O)[O-])c1 [Compound 16, 3-nitro-N-(1-(trans-4-cyclohexanol-1-yl)-5-fluoro-1H-benzoimidazol-2-yl)-benzamide] |  | < 10 µM | < 10 µM |  |
| O=[N+]([O-])c1cccc(CNc2nc3ccccc3[nH]2)c1 [Compound 17] |  | 10 to 30 µM | 10 to 30 µM |  |
